Values of other authors, collected in patent publication US20080139514A1, “DIPHOSPHONIC ACID PHARMACEUTICAL COMPOSITIONS” (priority 2006, published 2008).
Like-named read-outs stand apart in the source and are kept apart here.

Assays:
[1] = stored at room temperature

Row | Compound | Solubility in organic solvents (organic solvents) | Solubility in water | Stability on storage [1] | Solubility in water (monosodium monohydrate)
1 | CCCCCN(C)CCC(O)(P(=O)(O)O)P(=O)(O)O [Ibandronic acid, 3-(N-methyl-N-pentyl) amino-1-hydroxypropane-1,1-diphosphonic acid] | practically insoluble | freely soluble |  | 
2 | CCCCCN(C)CCC(O)(P(=O)(O)O)P(=O)(O)O [ibandronate sodium, ibandronate monosodium monohydrate] |  |  | quite stable | poor
